Species on record: Rattus norvegicus
Assay: DrugMatrix - Regimen: Daily Repeat
Format: toxicity, organism-based, Sprague-Dawley
Design: regimen Daily Repeat, gender Male, age 6-8 weeks
Settings: in vivo, po, 1500 mg/kg, route oral GAVAGE, dose level High, vehicle 100 % WATER; for ALANINE AMINOTRANSFERASE / ALBUMIN / ALKALINE PHOSPHATASE / ASPARTATE AMINOTRANSFERASE / BLOOD UREA NITROGEN / CARBON DIOXIDE / CHLORIDE / CHOLESTEROL / CREATINE PHOSPHOKINASE / CREATININE / GLUCOSE / LACTATE DEHYDROGENASE / LIPASE / PHOSPHORUS / POTASSIUM / SODIUM / TOTAL BILIRUBIN / TOTAL PROTEIN / URIC ACID: tissue Plasma
[1] = 120 h, tissue Blood, time 5 day

## CCCC(CCC)C(=O)O [VALPROIC ACID]
72 h, tissue Blood, time 3 day
  ABSOLUTE EOSINOPHIL: 0 CELLS/uL
  ABSOLUTE LYMPHOCYTE: 4940.67 CELLS/uL
  ABSOLUTE MONOCYTE: 35.67 CELLS/uL
  ABSOLUTE SEGMENTED NEUTROPHIL: 257 CELLS/uL
  BASOPHIL: 0%
  EOSINOPHIL: 0%
  ERYTHROCYTE COUNT: 5.94 x10E6/uL
  HEMATOCRIT: 37.3%
  LEUKOCYTE COUNT: 5.23 x10E3/uL
  LYMPHOCYTE: 94.33%
  MEAN CORPUSCULAR HEMOGLOBIN: 23.37 pg
  MEAN CORPUSCULAR HEMOGLOBIN CONCENTRATION: 37.17 G/DL
  MEAN CORPUSCULAR VOLUME: 62.83 fL
  MONOCYTE: 0.67%
  NEUTROPHIL: 5%
  NUCLEATED RED BLOOD CELLS: 0 /100WBC
  PLATELET COUNT: 901.67 x10E3/uL
72 h, time 3 day
  ALANINE AMINOTRANSFERASE: 32.33 u/L
  ALBUMIN: 4.5 G/DL
  ALKALINE PHOSPHATASE: 225.67 u/L
  ASPARTATE AMINOTRANSFERASE: 77.67 u/L
  BLOOD UREA NITROGEN: 10.67 mg/dL
  CARBON DIOXIDE: 26 mmol/L
  CHLORIDE: 104 MEQ/L
  CHOLESTEROL: 42.67 mg/dL
  CREATINE PHOSPHOKINASE: 120 u/L
  CREATININE: 0.22 mg/dL
  GLUCOSE: 138 mg/dL
  LACTATE DEHYDROGENASE: 112 u/L
  LIPASE: 7.67 u/L
  PHOSPHORUS: 14.3 mg/dL
  POTASSIUM: 6.21 MEQ/L
  SODIUM: 146.87 MEQ/L
  TOTAL BILIRUBIN: 0.1 mg/dL
  TOTAL PROTEIN: 5.87 G/DL
  URIC ACID: 1.7 mg/dL
[1]
  ABSOLUTE BASOPHIL: 0 CELLS/uL
  ABSOLUTE EOSINOPHIL: 7.25 CELLS/uL
  ABSOLUTE LYMPHOCYTE: 3923.75 CELLS/uL
  ABSOLUTE MONOCYTE: 124 CELLS/uL
  ABSOLUTE SEGMENTED NEUTROPHIL: 320 CELLS/uL
  BASOPHIL: 0%
  EOSINOPHIL: 0.25%
  ERYTHROCYTE COUNT: 6.03 x10E6/uL
  HEMATOCRIT: 36.38%
  LEUKOCYTE COUNT: 4.38 x10E3/uL
  LYMPHOCYTE: 91%
  MEAN CORPUSCULAR HEMOGLOBIN: 22.62 pg
  MEAN CORPUSCULAR HEMOGLOBIN CONCENTRATION: 37.5 G/DL
  MEAN CORPUSCULAR VOLUME: 60.35 fL
  MONOCYTE: 2.25%
  NEUTROPHIL: 6.5%
  NUCLEATED RED BLOOD CELLS: 0 /100WBC
  PLATELET COUNT: 549.5 x10E3/uL
120 h, time 5 day
  ALANINE AMINOTRANSFERASE: 52.5 u/L
  ALBUMIN: 4.57 G/DL
  ALKALINE PHOSPHATASE: 204.25 u/L
  ASPARTATE AMINOTRANSFERASE: 132 u/L
  BLOOD UREA NITROGEN: 15.75 mg/dL
  CARBON DIOXIDE: 28 mmol/L
  CHLORIDE: 105.75 MEQ/L
  CHOLESTEROL: 53.5 mg/dL
  CREATINE PHOSPHOKINASE: 1153.75 u/L
  CREATININE: 0.25 mg/dL
  GLUCOSE: 150.25 mg/dL
  LACTATE DEHYDROGENASE: 237.5 u/L
  LIPASE: 8.25 u/L
  PHOSPHORUS: 13.5 mg/dL
  POTASSIUM: 6.62 MEQ/L
  SODIUM: 146.95 MEQ/L
  TOTAL BILIRUBIN: 0.15 mg/dL
  TOTAL PROTEIN: 5.9 G/DL
  URIC ACID: 1.88 mg/dL

Reference: ChEMBL document CHEMBL3885881, “DrugMatrix”
